According to US20050222229A1, “Fungicidal mixtures” (priority 2002, published 2005):

Tested on: Plasmopara viticola
Assay: Persistency against peronospora of grapevine caused by Plasmopara viticola (potted grapevines, inoculation 3 days after spraying)
Format: in vivo
Details: grapevine Müller-Thurgau, inoculated 3 days after treatment
Protocol: The active compounds, separately or together, were formulated as a stock solution comprising 0.25% by weight of active compound in acetone or DMSO. 1% by weight of the emulsifier Uniperol® EL (wetting agent having emulsifying and dispersing action based on ethoxylated alkylphenols) was added to the solution, and the mixture was diluted with water to the desired concentration.
Use example: Persistency against peronospora of grapevine caused by Plasmopara viticola.
Leaves of potted grapevines of the cultivar “Müller-Thurgau” were sprayed to run off point with an aqueous suspension having the concentration of active compound stated below. To be able to assess the persistency of the substances, the plants were, after the spray coating had dried on, placed in a greenhouse for 3 days. Only then were the leaves inoculated with an aqueous zoospore suspension of Plasmopara viticola. The grapevines were then initially placed in a water-vapor-saturated chamber at 24° C. for 48 hours and then in a greenhouse at temperatures between 20 and 30° C. for 5 days. After this period of time, the plants were, to promote sporangiophore eruption, again placed in a humid chamber for 16 hours. The extent of the development of the infection on the undersides of the leaves was then determined visually.
for evaluation, the visually determined values for the percentages of infected leaf area were converted into efficacies in. % of the untreated control.
The efficacy (E) is calculated as follows using Abbot's formula: E=(1−α/β)·100 • α corresponds to the fungal infection of the treated plants in % and • β corresponds to the fungal infection of the untreated (control) plants in %
An efficacy of 0 means that the infection level of the treated plants corresponds to that of the untreated control plants; an efficacy of 100 means that the treated plants were not infected.
The expected efficacies of the active compound mixtures are determined using Colby's formula [R. S. Colby, Weeds 15, 20-22 (1967)] and compared with the observed efficacies. Colby's formula: E=x+y−x·y/100 • E expected efficacy, expressed in % of the untreated control, when using the mixture of the active compounds A and B at the concentrations a and b • x efficacy, expressed in % of the untreated control, when using active compound A at a concentration of a
y efficacy, expressed in % of the untreated control, when using active compound B at a concentration of b

[1] = 0.375 ppm active compound in the spray liquor
[2] = 0.75 ppm active compound in the spray liquor
[3] = 1.5 ppm active compound in the spray liquor
[4] = 3 ppm active compound in the spray liquor
[5] = 6 ppm active compound in the spray liquor

Row | Structure (SMILES) | Efficacy in % of the untreated control [1] [%] | Efficacy in % of the untreated control [2] [%] | Efficacy in % of the untreated control [3] [%] | Efficacy in % of the untreated control [4] [%] | Efficacy in % of the untreated control [5] [%] | Efficacy in % of the untreated control (3.75 ppm active compound in the spray liquor) [%] | Efficacy in % of the untreated control (7.5 ppm active compound in the spray liquor) [%] | Efficacy in % of the untreated control (15 ppm active compound in the spray liquor) [%]
1 | CC1(c2ccc(Oc3ccccc3)cc2)OC(=O)N(Nc2ccccc2)C1=O (stereo not shown) [Ib, famoxadone] | 0 | 77 | 83 | 89 | 89 |  |  | 
2 | CSC1=N[C@@](C)(c2ccccc2)C(=O)N1Nc1ccccc1 [Ia, fenamidone] | 66 | 77 | 93 | 89 | 94 |  |  | 
3 | N#Cc1sc2c(=O)c3ccccc3c(=O)c=2sc1C#N [II, dithianon] |  |  |  |  |  | 0 | 20 | 32
